Literature values in article PMC3845493 (Molecular pharmaceutics, 2013).

For “PARVGLGITTVLTMTTQSSGSRA [Peptide M2GlyR]”, the “Aggregation in aqueous solutions” value is given as “tendency to aggregate in aqueous solutions”.
